Like-named read-outs stand apart in the source and are kept apart here. Where a SMILES comes first, the peptide text is derived from it. [ ]: non-standard residue; d: D form. The star is where a group is joined. Sta = CC(C)C[C@H](N)[C@@H](O)CC(=O)O; Isovaleryl = CC(C)CC(=O)*
Experiments:
HIV-2 protease = test: HIV protease cleavage of nonapeptide (HPLC); assay type: biochemical; conditions: 0.5 μl of 10 μg/μl inhibitor in DMSO per 10 μl reaction; pH 6.5, room temperature; pentapeptide product relative to DMSO control; sampled at ca. 16 and 40 hr (time not given)
Procedure: Activity Against HIV Protease
The assay for proteolyic activity is a modified version of that previously described by Copeland et al., Gene Anal. Tech., 5:109-115 (1988). For each assay to be performed 2 microliters of protease solution (ca. 100 ng) is added to 3 μg of nonapeptide (Val-Ser-Gln-Asn-Tyr-Pro-Ile-Val-Gln-NH2) in 8 μl of 200 mM sodium phosphate, 1 M NaCl, 5% glycerol, 0.25% Nonidet-40, at pH 6.5. This affords a stock solution containing 10 μl per number of reactions. This stock is aliquoted out in 10 μl portions to which 0.5 μl of DMSO (a control is run with each set of assays to compensate for minor experimental variations) or a DMSO solution containing 10 μg/μl of an inhibitor, i.e., any one of the compounds of the present invention, is added. The reactions were incubated at room temperature and 4 μl portions were removed at ca. 16 and 40 hr. intervals. HPLC analysis was performed on a 4.6×250 mm Lichrosorb RP-18 column eluted with a gradient of 0-40% acetonitrile in water (containing 0.05% TFA) over 30 min monitoring absorbance at 206 nm. Progress of the enzymatic cleavage was followed by monitoring the appearance of the pentapeptide (Val-Ser-Gln-Asn-Tyr-OH) cleavage product. The activity is expressed as the amount of the pentapeptide (Val-Ser-Gln-Asn-Tyr-OH) observed relative to the control reaction for that set of assays.
Inhibition of HIV-2 protease

HIV1 IIIb = test: microbe, parasite or virus in culture; assay type: cell-based; conditions: Human immunodeficiency virus 1, IIIB; for viability at 50 µg/mL: 50 ug/ml; for viability at 4.9 µg/mL: 4.9 ug/ml; for viability at 2.9 µg/mL: 2.9 ug/ml; for viability at 21 µg/mL: 21 ug/ml; for viability at 10 µg/mL: 10 ug/ml; for viability at 0.1 µg/mL: 0.1 ug/ml; for viability at 1 µg/mL: 1 ug/ml
Excerpt: In-vitro Screening Anti--HIV XTT Assay
This assay, which is available to the public by the National Cancer Institute, utilizes colorimetry based on the production of a colored formazin from a tetrazolium salt by viable cells, to develop a safe, rapid and quantitative measure of HIV cytopathology. The assay is a modification of the previously described screening method for the detection of anti-tumor drug cytotoxicity (D. A. Scudiero, et al, Cancer Res, 48, 4827-4833 (1988)). It involves the plating of susceptible human "host" cells with and without virus in microculture plates, adding various concentrations of the respective test compounds, incubating the plates for seven days, during which time infected, non-drug treated control cells are largely or totally destroyed by the virus. The number of remaining viable cells are determined utilizing a calorimetric endpoint. A beneficial antiviral effect is indicated by a response % grater than the virus kill %, with 100% being optimal.
Anti-viral effect: Response (Viable Cells, determined by colorometric
absorbance of formazan dye produced) as % of uninfected controls
Virus Source: HIV1 IIIb; C, Virus producing H9 cells; V, cell free virus
Virus Kill: Infected untreated cells as % of uninfected cell controls
*: Culture redosed with compound after 3 days

CCCCCCCCCCC[C@@H]1O[C@@H]1CO (relative stereo) [2-cis-Undecyloxirane methanol]
Percent Control Cleavage of Nonapeptide HIV-1 Cleavage Site Fragment (HIV-2 protease): 104%

CCCCCCCCCCC[C@H]1O[C@@H]1CO (relative stereo) [2-trans-Undecyloxirane methanol]
Percent Control Cleavage of Nonapeptide HIV-1 Cleavage Site Fragment (HIV-2 protease): 88%

CCCCCCC[C@H]1O[C@H]1C (relative stereo) [Example 43, cis-2-Epoxydecene]
Percent Control Cleavage of Nonapeptide HIV-1 Cleavage Site Fragment (HIV-2 protease): 102%

CCCCCCC/C=C\CO [Example 3, cis-2-Decen-1-ol]
Percent Control Cleavage of Nonapeptide HIV-1 Cleavage Site Fragment (HIV-2 protease): 105%

CCCCCCCCC[C@@H]1O[C@@H]1CO [Example 12, (2R-cis)-3-Nonyloxirane Methanol]
viability at 50 µg/mL (HIV1 IIIb; 168 h, read-out: Antiviral Effect (viable cells as % of uninfected controls), run 8, source V (cell free virus), virus kill 27.0%): 56.9%
viability at 4.9 µg/mL (HIV1 IIIb; 168 h, read-out: Antiviral Effect (viable cells as % of uninfected controls), run 9, source V (cell free virus), virus kill 53.0%): 82.4%
viability at 2.9 µg/mL (HIV1 IIIb; 168 h, read-out: Antiviral Effect (viable cells as % of uninfected controls), run 10, source V (cell free virus), virus kill 55.0%): 82.9%
viability at 49 µg/mL (HIV1 IIIb; 168 h, read-out: Antiviral Effect (viable cells as % of uninfected controls), run 11, 49 ug/ml, source V (cell free virus), virus kill 30.0%): 54.9%
viability at 2.9 µg/mL (HIV1 IIIb; 168 h, read-out: Antiviral Effect (viable cells as % of uninfected controls), run 12, source V (cell free virus), virus kill 36.0%): 62.2%
viability at 21 µg/mL (HIV1 IIIb; 168 h, read-out: Antiviral Effect (viable cells as % of uninfected controls), run 13, source V (cell free virus), virus kill 19.5%): 53.4%
viability at 21 µg/mL (HIV1 IIIb; 168 h, read-out: Antiviral Effect (viable cells as % of uninfected controls), run 14, source V (cell free virus), virus kill 24.0%): 98.7%
viability at 10 µg/mL (HIV1 IIIb; H9, 168 h, read-out: Antiviral Effect (viable cells as % of uninfected controls), run 1, source C (virus producing H9 cells), virus kill 6.0%): 75.1%
viability at 10 µg/mL (HIV1 IIIb; H9, 168 h, read-out: Antiviral Effect (viable cells as % of uninfected controls), run 2, source C (virus producing H9 cells), virus kill 27.0%): 71.3%
viability at 50 µg/mL (HIV1 IIIb; H9, 168 h, read-out: Antiviral Effect (viable cells as % of uninfected controls), run 3, source C (virus producing H9 cells), virus kill 16.0%): 32.1%
viability at 4.9 µg/mL (HIV1 IIIb; H9, 168 h, read-out: Antiviral Effect (viable cells as % of uninfected controls), run 4, source C (virus producing H9 cells), virus kill 16.0%): 31.6%
viability at 2.9 µg/mL (HIV1 IIIb; H9, 168 h, read-out: Antiviral Effect (viable cells as % of uninfected controls), run 5, source C (virus producing H9 cells), virus kill 15.0%): 23.1%
viability at 4.9 µg/mL (HIV1 IIIb; H9, 168 h, read-out: Antiviral Effect (viable cells as % of uninfected controls), run 6, source C (virus producing H9 cells), virus kill 11.0%): 16.7%
viability at 29 µg/mL (HIV1 IIIb; H9, 168 h, read-out: Antiviral Effect (viable cells as % of uninfected controls), run 7, 29 ug/ml, source C (virus producing H9 cells), virus kill 11.0%): 15.7%
Percent Control Cleavage of Nonapeptide HIV-1 Cleavage Site Fragment (HIV-2 protease): 96%

OC[C@@H]1O[C@@H]1COCc1ccccc1 [Example 13, (2S-cis)-3-(Benzyloxymethyl)oxirane Methanol]
viability at 0.1 µg/mL (HIV1 IIIb; 168 h, read-out: Antiviral Effect (viable cells as % of uninfected controls), run 4, source V (cell free virus), virus kill 55.0%): 50%
viability at 0.1 µg/mL (HIV1 IIIb; 168 h, read-out: Antiviral Effect (viable cells as % of uninfected controls), run 5, source V (cell free virus), virus kill 27.0%): 52.5%
viability at 4.4 µg/mL (HIV1 IIIb; 168 h, read-out: Antiviral Effect (viable cells as % of uninfected controls), run 6, 4.4 ug/ml, source V (cell free virus), virus kill 24.0%): 28.4%
viability at 0.44 µg/mL (HIV1 IIIb; 168 h, read-out: Antiviral Effect (viable cells as % of uninfected controls), run 7*, 0.44 ug/ml, source V (cell free virus), virus kill 27.0%, culture redosed with compound after 3 days): 30.1%
viability at 0.1 µg/mL (HIV1 IIIb; H9, 168 h, read-out: Antiviral Effect (viable cells as % of uninfected controls), run 1, source C (virus producing H9 cells), virus kill 21.0%): 22.1%
viability at 1 µg/mL (HIV1 IIIb; H9, 168 h, read-out: Antiviral Effect (viable cells as % of uninfected controls), run 2, source C (virus producing H9 cells), virus kill 13.0%): 15.7%
viability at 1 µg/mL (HIV1 IIIb; H9, 168 h, read-out: Antiviral Effect (viable cells as % of uninfected controls), run 3, source C (virus producing H9 cells), virus kill 11.0%): 10.2%
Percent Control Cleavage of Nonapeptide HIV-1 Cleavage Site Fragment (HIV-2 protease): 81%

CCCCCCCCC[C@@H]1O[C@H]1CO [Example 29, (2S-trans)-3-Nonyloxirane Methanol]
Percent Control Cleavage of Nonapeptide HIV-1 Cleavage Site Fragment (HIV-2 protease): 106%

CCCCCCCCC[C@H]1O[C@@H]1CO [Example 30, (2R-trans)-3-Nonyloxirane Methanol]
Percent Control Cleavage of Nonapeptide HIV-1 Cleavage Site Fragment (HIV-2 protease): 105%

CCCCCCCCCCC[C@@H]1O[C@H]1CO [Example 31, (2S-trans)-3-Undecyloxirane Methanol]
Percent Control Cleavage of Nonapeptide HIV-1 Cleavage Site Fragment (HIV-2 protease): 95%

CCCCCCCCCCC[C@H]1O[C@@H]1CO [Example 32, (2R-trans)-3-Undecyloxirane Methanol]
Percent Control Cleavage of Nonapeptide HIV-1 Cleavage Site Fragment (HIV-2 protease): 98%

CCCCCCC[C@@H]1O[C@H]1CO [Example 33, (2S-trans)-3-heptyloxirane Methanol]
Percent Control Cleavage of Nonapeptide HIV-1 Cleavage Site Fragment (HIV-2 protease): 105%

CCCCCCC[C@H]1O[C@@H]1CO [Example 34, (2R-trans)-3-Heptyloxirane Methanol]
Percent Control Cleavage of Nonapeptide HIV-1 Cleavage Site Fragment (HIV-2 protease): 104%

CCCCCCC[C@H]1O[C@H]1C(=O)O [Example 37, (2R-cis)-3-Heptyloxirane Carboxylic Acid]
Percent Control Cleavage of Nonapeptide HIV-1 Cleavage Site Fragment (HIV-2 protease): 104%

CCCCCCC[C@@H]1O[C@@H]1C(=O)O [Example 38, (2S-cis)-3-Heptyloxiranecarboxylic Acid]
Percent Control Cleavage of Nonapeptide HIV-1 Cleavage Site Fragment (HIV-2 protease): 105%

CCCCCCCCC[C@H]1O[C@H]1C(=O)N1CCC[C@H]1C(=O)OC [Example 41, N-(2R-cis)-3-Nonyloxiraneacyl L-proline Methyl Ester]
Percent Control Cleavage of Nonapeptide HIV-1 Cleavage Site Fragment (HIV-2 protease): 24%

CCCCCCCCC[C@H]1O[C@H]1C(=O)N(CC)CC [Example 42, N,N-Diethyl-(2R-cis)-3-nonyloxiranecarboxy Amide]
Percent Control Cleavage of Nonapeptide HIV-1 Cleavage Site Fragment (HIV-2 protease): 77%

CCCCCCCCCCCCCC(=O)O [Myristic Acid, reference compound]
Percent Control Cleavage of Nonapeptide HIV-1 Cleavage Site Fragment (HIV-2 protease): 111%

CC(C)CC(=O)N[C@H](C(=O)N[C@H](C(=O)N[C@@H](CC(C)C)[C@@H](O)CC(=O)N[C@@H](C)C(=O)N[C@@H](CC(C)C)[C@@H](O)CC(=O)O)C(C)C)C(C)C [Pepstatin A, reference compound] (Isovaleryl-VV[Sta]A[Sta]-OH)
Percent Control Cleavage of Nonapeptide HIV-1 Cleavage Site Fragment (HIV-2 protease): 1%
